This is an account of results in patent US4550118A, “Heterocyclic compounds” (Ikeda Mohando Co., Ltd., priority 1982, dated 1985).

Test [1] addresses T1, histamine H2 receptor in atria (Cavia porcellus, UniProt P47747).
T1 construct: right atrium was isolated; from tissue; host or cells: isolated right atrium of male Hartley guinea pig
Description: Histamine H2 receptor inhibition effect by isolated guinea pig right atrium preparation (negative chronotropic effect). The class given is cell-based, Male Hartley Guinea Pig. Conditions: 5×10^-6 mol sample 3 minutes prior to histamine, mean of five; for Kb: read-out: inhibitory effect of histamine H2 receptor in atria (pA2 value) (converted). On the procedure: (B) Measurement of Histamine H2 Receptor Inhibition Effect by Isolated Guinea Pig Right Atrium Preparation
Male Hartley Guinea Pig weighing around 400 g was sacrified by decapitation, and right atrium was isolated. The right atrium was suspended in an organ bath (50 ml) containing modified Ringer solution. Under application of a tensile load of 1 g, the heart rate was recorded by means of a polygraph. Histamine was applied cumulatively from 1×10^-7 mol to 3×10^-4 mol and a cumulative dosage response curve was drawn. Then, 5×10^-6 mol of the sample was administered 3 minutes prios to histamine application. The negative logarithmic value (pA2) of the specimen molarity required for shifting the curve to the right to double concentration was calculated.

For test [2], the system named is acid secretion in pylorus-ligated rats. Description: Anti-secretory effect (histamine-stimulated gastric acid secretion) in pylorus-ligated rat. The class given is in vivo, male wistar rats. The settings on record: Rattus norvegicus, sc, 3 h; 2 mg/kg s.c., 30 min before histamine 3 mg/kg s.c.; n=5; * significant at 5%, ** at 1% vs control; read-out: inhibitory effect of acid secretion (%) at 2 mg/kg s.c. Here is the method: (A) Anti-secretory Effect in Pylorus-ligated Rat
After 24 hr fasting, male wistar rats weighing about 160 g were anesthetized by intraperitoreal injection of urethans 1.2 g/kg. Then, after ligating the pylorus and the esophagus, the proventriculus was incised and a double polyethylene cannula was inserted. The gastric wall was washed out with 5 ml of physiological saline every 30 minutes and the amount of acid contained in the saline after washing was measured by titration. After measuring the basal acid secretion of the pylorus ligated rats three times, the compounds of the invention, 2 mg/kg, were administered subcutaneously and, 30 minutes thereafter, histamine 3 mg/kg, was administered also subcutaneously. Then, the amounts of acid secretion were measured for 3 hours. […] Then, an inhibition rate was calculated in accordance with the following formula, in relation to the increment values measured for the control group. [formula]
One group included five examples.

T1 sequence (P47747 whole entry): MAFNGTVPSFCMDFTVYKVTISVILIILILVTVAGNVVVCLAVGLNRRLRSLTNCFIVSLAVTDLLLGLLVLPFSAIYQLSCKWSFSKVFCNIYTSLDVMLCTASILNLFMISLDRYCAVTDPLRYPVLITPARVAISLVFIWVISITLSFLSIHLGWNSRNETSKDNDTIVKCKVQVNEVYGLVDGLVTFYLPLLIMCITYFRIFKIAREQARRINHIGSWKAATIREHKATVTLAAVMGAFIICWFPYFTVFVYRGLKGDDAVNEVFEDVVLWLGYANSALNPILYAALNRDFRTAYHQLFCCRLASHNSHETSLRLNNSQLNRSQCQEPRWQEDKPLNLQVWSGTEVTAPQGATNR

Consider `CN(C)Cc1nc2cc(CSCCNc3nc(N)n[nH]3)ccc2[nH]1` [Example 96, 5-[2-<5-(2-dimethylaminomethylbenzimidazolyl)methylthio>ethyl]-1H-1,2,4-triazole-3,5-diamine], for which the Kb in test [1] was 933 nM.

Consider `O=c1[nH]c(NCCCOc2ccc3[nH]c(CN4CCCC4)nc3c2)ncc1Cc1ccc2c(c1)OCO2` [Example 63, 5-[5-(1,3-benzodioxolyl)methyl]-2-[3-<5-(2-(1-pyrrolidinomethyl)benzimidazolyl)oxy>propylamino]-4-pyrimidone], for which the inhibition in vivo at 2 mg/kg in test [2] came to 78%. For the same molecule, the Kb in test [1] was 4070 nM. Consider `C#CCNc1n[s+]([O-])nc1NCCSCc1ccc2[nH]c(CN(C)C)nc2c1` (centres unmarked) [Example 109, 3-[2-<5-(2-dimethylaminomethylbenzimidazolyl)methylthio>ethyl]amino-4-(2-propinylamino)-1,2,5-thiadiazole-1-oxide], for which, in test [2], the inhibition in vivo at 2 mg/kg turned out to be 74%. Also, the Kb in test [1] is 759 nM.

In the case of `O=c1[nH]c(NCCCOc2ccc3[nH]c(CN4CCCC4)nc3c2)ncc1Cc1cccnc1` [Example 67, 2-{3-[5-<2-(1-pyrrolidinomethyl)benzimidazolyl>oxy]propylamino}-5-(3-pyridylmethyl)-4-pyrimidone], the inhibition in vivo at 2 mg/kg in test [2] amounted to 93%. In addition, the Kb in test [1] was 4680 nM. For `CN(C)Cc1nc2cc(CSCCNc3ncc(CN(C)C)c(=O)[nH]3)ccc2[nH]1` [Example 73, 2-[2-<5-(2-dimethylaminomethylbenzimidazolyl)methylthio>ethylamino]-5-dimethylaminomethyl-4-pyrimidone], in that order: 91% and 631 nM. For `CCNc1n[s+]([O-])nc1NCCCOc1ccc2[nH]c(CN(C)C)nc2c1` (centres unmarked) [Example 102, 3-[3-<5-(2-dimethylaminomethylbensimidazolyl)oxi>propyl]amino-4-ethylamino-1,2,5-thiadiazol-1-oxide], in that order: 68% and 2190 nM. For `CN(C)Cc1nc2cc(CSCCC(N)=NS(N)(=O)=O)ccc2[nH]1` [Example 121, N-sulfamoyl-3-[5-(2-dimethylaminomethylbenzimidazolyl)methylthio]propionamidine], in that order: 76% and 562 nM. As for `O=c1[nH]c(NCCCOc2ccc3[nH]c(CN4CCCCC4)nc3c2)ncc1Cc1ccc2c(c1)OCO2` [Example 64, 5-[5-(1,3-benzodioxolyl)methyl]-2-[3-<5-(2-(1-piperidinomethyl)benzimidazolyl)oxy>propylamino]-4-pyrimidone], in test [2], the inhibition in vivo at 2 mg/kg amounted to 76%. Besides, the Kb in test [1] was 5890 nM.

Take `CCNc1n[s+]([O-])nc1NCCCSc1ccc2[nH]c(NC(=N)N)nc2c1` (centres unmarked) [Example 113, 3-N-[3-<5-(2-guanidinobenzimidazolyl)thio>propyl]amino-4-ethylamino-1,2,5-thiadiazole-1-oxide]: in test [2], the inhibition in vivo at 2 mg/kg was 63%. In test [1], the Kb was 8510 nM. The corresponding values for `O=c1[nH]c(NCCCOc2ccc3[nH]c(CN4CCCCC4)nc3c2)nnc1Cc1cccnc1` [Example 85, 3-{3-[5-<2-(1-piperidinomethyl)benzimidazolyl>oxy]propylamino}-6-(3-pyridylmethyl)-1,2,4-triazine-5-one] are 46% and 1950 nM.

Turning to `CN(C)Cc1nc2cc(CSCCNc3nnc(Cc4cccnc4)c(=O)[nH]3)ccc2[nH]1` [Example 87, 3-[2-<5-(2-dimethylaminomethylbenzimidazolyl)methylthio>ethylamino]-6-(3-pyridylmethyl)-1,2,4-triazine-5-one], the inhibition in vivo at 2 mg/kg in test [2] was 84%. The Kb in test [1] was 603 nM.

Take `C#CCNC(=C[N+](=O)[O-])NCCSCc1ccc2[nH]c(CN(C)C)nc2c1` [Example 44, 1-nitro-2-propargylamino-2-[2-<5-(2-dimethylaminomethylbenzimidazolyl)methylthio>ethylamino]ethylene]: the inhibition in vivo at 2 mg/kg in test [2] worked out at 57%. Besides, the Kb in test [1] is 631 nM. The corresponding values for `CNC(=NC#N)NCCCOc1ccc2[nH]c(CN3CCCCC3)nc2c1` [Example 5, N-cyano-N'-methyl-N"-{3-[5-<2-(1-piperidinomethyl)benzimidazolyl>oxy]propyl}guanidine] are 65% and 1380 nM. For `CNc1n[s+]([O-])nc1NCCSCc1ccc2[nH]c(CN(C)C)nc2c1` (centres unmarked) [Example 106, 3-[2-<5-(2-dimethylaminomethylbenzimidazolyl)methylthio>ethyl]amino-4-methylamino-1,2,5-thiadiazole-1-oxide], in that order: 89% and 537 nM. For `CNC(=C[N+](=O)[O-])NCCCOc1ccc2[nH]c(CN3CCCC3)nc2c1` [Example 28, 1-nitro-2-methylamino-2-[3-<5-(2-(1-pyrrolidinomethyl)benzimidazolyl)oxy>propylamino]ethylene], in that order: 64% and 2450 nM. Consider `Nc1n[s+]([O-])nc1NCCSCc1ccc2[nH]c(CN3CCCCC3)nc2c1` (centres unmarked) [Example 105, 3-{2-[5-<2-(1-piperidinomethyl)benzimidazolyl>methylthio]ethyl}amino-4-amino-1,2,5-thiadiazole-1-oxide], for which, in test [2], the inhibition in vivo at 2 mg/kg was found to be 92%. Further, in test [1], the “inhibitory effect of histamine H2 receptor in atria (pA2 value)” value is 6.08.

As for `CNC(=C[N+](=O)[O-])NCCSCc1ccc2[nH]c(CN(C)C)nc2c1` [Example 42, 1-nitro-2-methylamino-2-[2-<5-(2-dimethylaminomethylbenzimidazolyl)methylthio>ethylamino]ethylene], the inhibition in vivo at 2 mg/kg in test [2] was 93%. Moreover, in test [1], the Kb was 1450 nM. As for `CNC(=C[N+](=O)[O-])NCCCCOc1ccc2[nH]c(CN3CCCCC3)nc2c1` [Example 30, 1-nitro-2-methylamino-2-{4-[5-<2-(1-piperidinomethyl)benzimidazolyl>oxy]butylamino}ethylene], the inhibition in vivo at 2 mg/kg in test [2] is 78%. In test [1], the Kb is 1380 nM. Regarding `C#CCNC1=NS(=O)(=O)N=C1NCCSCc1ccc2[nH]c(CN(C)C)nc2c1` [Example 110, 3-[2-<5-(2-dimethylaminomethylbenzimidazolyl)methylthio>ethyl]amino-4-(2-propynylamino)-1,2,5-thiadoazole-1,1-dioxide], the inhibition in vivo at 2 mg/kg in test [2] was 68%. Besides, the Kb in test [1] is 1580 nM.

On to `CNC(=NC#N)NCCCOc1ccc2[nH]c(CN3CCCC3)nc2c1` [Example 3], for which, in test [2], the inhibition in vivo at 2 mg/kg was found to be 54%. Moreover, the Kb in test [1] was 1170 nM. For `O=c1ccnc(NCCCOc2ccc3[nH]c(CN4CCCCC4)nc3c2)[nH]1` [Example 59, 2-[3-<5-(2-(1-piperidinomethyl)benzimidazolyl)oxy>propylamino]-4-pyrimidone], in that order: 74% and 891 nM. For `CCNc1n[s+]([O-])nc1NCCSCc1ccc2[nH]c(CN(C)C)nc2c1` (centres unmarked) [Example 108, 3-[2-<5-(2-dimethylaminomethylbenzimidazolyl)methylthio>ethyl]amino-4-ethylamino-1,2,5-thiadiazole-1-oxide], in that order: 77% and 1450 nM.

With `CN(C)Cc1nc2cc(CSCCNc3nccc(=O)[nH]3)ccc2[nH]1` [Example 72, 2-[2-<5-(2-dimethyaminomethylbenzimidazolyl)methylthio>ethylamino]-4-pyrimidone], the inhibition in vivo at 2 mg/kg in test [2] stood at 53%. In test [1], the Kb is 851 nM. For `CNC(=NC#N)NCCCCOc1ccc2[nH]c(CN(C)C)nc2c1` [Example 2, N-cyano-N'-methyl-N"-[4-<5-(2-dimethylaminomethylbenzimidazolyl)oxy>butyl]guanidine], in that order: 75% and 1510 nM. The corresponding values for `CN(C)Cc1nc2cc(CSCCNC(N)=NS(=O)(=O)c3ccccc3)ccc2[nH]1` [Example 46, N-benzenesulfonyl-N'-[2-<5-(2-dimethylaminomethylbenzimidazolyl)methylthio>ethyl]guanidine] are 72% and 1170 nM. For `CN(C)Cc1nc2cc(CSCCCC(N)=NS(N)(=O)=O)ccc2[nH]1` [Example 122, N-sulfamoyl-4-[5-(2-dimethylaminomethylbenzimidazolyl)methylthio]butyroamidine], in that order: 32% and 2450 nM. As to `CN(C)Cc1nc2cc(OCCCNc3ncc(Cc4ccc5c(c4)OCO5)c(=O)[nH]3)ccc2[nH]1` [Example 62, 5-[5-(1,3-benzodioxolyl)methyl]-2-[3-<5-(2-dimethylaminomethylbenzimidazolyl)oxy>propylamino]-4-pyrimidone], in test [2], the inhibition in vivo at 2 mg/kg was 84%. For the same molecule, the Kb in test [1] was 631 nM.
